# Test results as given in ChEMBL document CHEMBL4680278 (J Med Chem, 2020).
# Legend:
# [1] = biological target: T1, 5-hydroxytryptamine receptor 1A (Homo sapiens, UniProt P08908); test: Displacement of [3H]8-OH-DPAT from human 5-HT1a receptor expressed in CHO cells incubated for 30 mins by liquid scintillation counting method
# T1 sequence (P08908 whole entry): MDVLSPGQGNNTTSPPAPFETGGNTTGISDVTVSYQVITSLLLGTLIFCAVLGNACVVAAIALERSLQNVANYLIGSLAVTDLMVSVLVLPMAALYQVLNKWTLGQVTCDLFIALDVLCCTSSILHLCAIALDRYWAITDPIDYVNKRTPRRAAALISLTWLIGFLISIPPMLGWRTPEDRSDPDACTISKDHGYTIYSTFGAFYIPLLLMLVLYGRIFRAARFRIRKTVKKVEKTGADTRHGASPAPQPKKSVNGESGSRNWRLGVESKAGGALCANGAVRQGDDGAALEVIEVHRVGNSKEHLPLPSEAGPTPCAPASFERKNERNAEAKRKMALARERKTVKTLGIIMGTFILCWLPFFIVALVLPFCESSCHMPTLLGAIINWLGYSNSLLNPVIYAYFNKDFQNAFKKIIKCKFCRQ
# [2] = biological target: T2, 5-hydroxytryptamine receptor 2C (Homo sapiens, UniProt P28335); test: Inhibition of 5-HT2C (unknown origin)
# T2 sequence (P28335 whole entry): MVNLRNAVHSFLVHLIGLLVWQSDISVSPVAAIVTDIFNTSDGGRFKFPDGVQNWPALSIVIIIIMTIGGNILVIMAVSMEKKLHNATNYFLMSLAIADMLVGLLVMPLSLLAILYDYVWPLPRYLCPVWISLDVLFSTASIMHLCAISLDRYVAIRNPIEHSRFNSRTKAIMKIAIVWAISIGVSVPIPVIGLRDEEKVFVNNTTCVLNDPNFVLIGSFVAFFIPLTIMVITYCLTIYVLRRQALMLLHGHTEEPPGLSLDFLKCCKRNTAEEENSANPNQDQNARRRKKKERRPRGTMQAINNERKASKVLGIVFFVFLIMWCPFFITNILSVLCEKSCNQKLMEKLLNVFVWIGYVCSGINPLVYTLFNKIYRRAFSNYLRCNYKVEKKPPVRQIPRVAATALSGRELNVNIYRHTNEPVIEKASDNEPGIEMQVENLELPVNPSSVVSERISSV
# [3] = biological target: T3, Alpha-2C adrenergic receptor (Homo sapiens, UniProt P18825); test: Inhibition of alpha2C receptor (unknown origin)
# T3 sequence (P18825 whole entry): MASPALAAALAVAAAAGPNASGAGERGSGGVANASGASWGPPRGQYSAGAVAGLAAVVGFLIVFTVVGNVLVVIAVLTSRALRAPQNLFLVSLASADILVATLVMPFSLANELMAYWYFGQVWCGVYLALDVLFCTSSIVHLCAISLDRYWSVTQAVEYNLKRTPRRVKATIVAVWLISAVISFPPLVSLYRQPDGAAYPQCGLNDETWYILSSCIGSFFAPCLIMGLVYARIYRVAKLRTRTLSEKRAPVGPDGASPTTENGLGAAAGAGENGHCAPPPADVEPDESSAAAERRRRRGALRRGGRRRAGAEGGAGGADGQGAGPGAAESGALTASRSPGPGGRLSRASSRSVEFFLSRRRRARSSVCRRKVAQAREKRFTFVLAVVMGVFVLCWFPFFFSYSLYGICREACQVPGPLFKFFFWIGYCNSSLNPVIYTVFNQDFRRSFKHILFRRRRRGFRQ
# [4] = biological target: Delta-type opioid receptor (Homo sapiens, UniProt P41143); test: Inhibition of delta-type opioid receptor receptor (unknown origin)
# [5] = Cmax in human plasma at 14+/- 15 mg, po; assay type: ADME, cell-free; design: route oral, dose 14 mg; details: 14 mg
# [6] = Bioavailability in dog at 180 mg; assay type: ADME, organism-based, Canis lupus familiaris; details: in vivo
# [7] = Volume of distribution in human at 20 mg, iv measured after 0.05 to 72 hrs by gas chromatograph mass spectrometry; assay type: ADME, organism-based; details: in vivo, time 0.05-72 hrs
# [8] = Elimination half-life in human at 10 mg, po using PTL401 formulation measured upto 24 hrs by LC-MS/MS assay; assay type: ADME, organism-based; details: in vivo, read-out: beta t1/2 (converted)
# Cytochrome P450 1B1 = biological target: T4, Cytochrome P450 1B1 (Homo sapiens, UniProt Q16678); test: Competitive inhibition of human recombinant CYP1B1 using 7-Ethoxyresorufin as substrate by Lineweaver-Burk plot analysis; assay type: ADME; details: read-out: Ki(app)
# T4 sequence (Q16678 whole entry): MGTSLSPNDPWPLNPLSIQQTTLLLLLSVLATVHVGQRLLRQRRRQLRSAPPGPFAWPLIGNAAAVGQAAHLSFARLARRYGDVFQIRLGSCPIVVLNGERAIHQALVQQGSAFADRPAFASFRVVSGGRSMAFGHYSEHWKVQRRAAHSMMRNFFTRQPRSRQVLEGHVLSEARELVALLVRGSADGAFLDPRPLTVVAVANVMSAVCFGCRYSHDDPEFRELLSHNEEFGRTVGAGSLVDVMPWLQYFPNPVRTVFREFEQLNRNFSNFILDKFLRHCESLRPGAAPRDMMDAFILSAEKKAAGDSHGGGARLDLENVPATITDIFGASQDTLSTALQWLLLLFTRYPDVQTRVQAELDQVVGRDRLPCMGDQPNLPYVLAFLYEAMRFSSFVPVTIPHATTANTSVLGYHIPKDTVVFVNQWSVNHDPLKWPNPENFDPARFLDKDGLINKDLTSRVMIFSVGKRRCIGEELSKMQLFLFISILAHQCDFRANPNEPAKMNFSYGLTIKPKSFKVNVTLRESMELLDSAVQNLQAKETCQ
# [9] = Apparent oral clearance in human in fed state at 5 to 20 mg using oromucosal-spray formulation cotreated with THC by GC-MS analysis; assay type: ADME; details: in vivo, dose 5-20 mg
# Cytochrome P450 2A6 = biological target: T5, Cytochrome P450 2A6 (Homo sapiens, UniProt P11509); test: Non-competitive inhibition of human recombinant CYP2A6 expressed in baculovirus-infected insect cells using coumarin as substrate preincubated for 5 mins followed by NADPH-generating system addition by Lineweaver-Burk plot analysis; assay type: ADME
# T5 sequence (P11509 whole entry): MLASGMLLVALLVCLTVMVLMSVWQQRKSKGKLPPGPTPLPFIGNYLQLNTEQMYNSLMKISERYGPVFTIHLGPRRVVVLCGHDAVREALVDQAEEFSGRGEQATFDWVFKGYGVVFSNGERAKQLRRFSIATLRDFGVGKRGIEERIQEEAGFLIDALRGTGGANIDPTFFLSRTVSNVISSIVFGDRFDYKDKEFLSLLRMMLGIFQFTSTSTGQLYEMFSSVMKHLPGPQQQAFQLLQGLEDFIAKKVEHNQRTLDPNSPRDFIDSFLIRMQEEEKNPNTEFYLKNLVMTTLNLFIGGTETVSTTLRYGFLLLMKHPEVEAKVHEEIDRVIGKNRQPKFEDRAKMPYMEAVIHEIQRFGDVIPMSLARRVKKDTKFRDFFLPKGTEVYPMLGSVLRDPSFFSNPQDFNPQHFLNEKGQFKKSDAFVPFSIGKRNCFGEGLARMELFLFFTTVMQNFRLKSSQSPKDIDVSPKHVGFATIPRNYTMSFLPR
# [10] = Toxicity in pig assessed as mean arterial blood pressure drop at 50 mg/kg, iv administered for 15 mins by pulse oximetry relative to baseline; assay type: organism-based, Sus scrofa; details: in vivo, 0.25 h
# Sequence of Delta-type opioid receptor (P41143 whole entry): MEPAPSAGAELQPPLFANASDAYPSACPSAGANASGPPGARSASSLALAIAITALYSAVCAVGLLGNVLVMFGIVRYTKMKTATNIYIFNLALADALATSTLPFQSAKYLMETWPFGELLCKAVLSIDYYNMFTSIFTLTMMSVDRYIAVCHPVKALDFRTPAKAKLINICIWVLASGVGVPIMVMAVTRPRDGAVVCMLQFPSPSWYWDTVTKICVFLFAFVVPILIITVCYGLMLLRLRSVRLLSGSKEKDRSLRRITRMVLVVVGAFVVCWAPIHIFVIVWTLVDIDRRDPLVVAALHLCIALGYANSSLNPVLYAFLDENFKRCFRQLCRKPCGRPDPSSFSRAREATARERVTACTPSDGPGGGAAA
structure (smiles),measurement,setting,value
C=C(C)[C@@H]1CCC(C)=C[C@H]1c1c(O)cc(CCCCC)cc1O [CANNABIDIOL],EC50,[1],8 µM
same,Ki,[2],1.1 µM
same,Ki,[3],3.7 µM
same,Ki,[4],6.4 µM
same,Cmax,[5],0.9 nM
same,bioavailability,[6],13%
same,Vd,[7],2520 L
same,half-life,[8],2 h
same,Ki,Cytochrome P450 1B1,3.63 µM
same,CL/F,[9],8880 mL/min
same,Ki,Cytochrome P450 2A6,55 µM
same,Activity,[10],< 70%
